Experimental data taken from ChEMBL document CHEMBL3351422, “Discovery of N-substituted 7-azaindoline derivatives as potent, orally available M1 and M4 muscarinic acetylcholine receptors selective agonists” (Bioorg Med Chem Lett, 2014).

Experiments:
[1] = target: T1, Muscarinic acetylcholine receptor M2 (Homo sapiens) (UniProt P08172); experiment: Agonist activity at muscarinic M2 receptor (unknown origin) at 1 uM by calcium mobilization assay; format: functional
T1 sequence (whole entry): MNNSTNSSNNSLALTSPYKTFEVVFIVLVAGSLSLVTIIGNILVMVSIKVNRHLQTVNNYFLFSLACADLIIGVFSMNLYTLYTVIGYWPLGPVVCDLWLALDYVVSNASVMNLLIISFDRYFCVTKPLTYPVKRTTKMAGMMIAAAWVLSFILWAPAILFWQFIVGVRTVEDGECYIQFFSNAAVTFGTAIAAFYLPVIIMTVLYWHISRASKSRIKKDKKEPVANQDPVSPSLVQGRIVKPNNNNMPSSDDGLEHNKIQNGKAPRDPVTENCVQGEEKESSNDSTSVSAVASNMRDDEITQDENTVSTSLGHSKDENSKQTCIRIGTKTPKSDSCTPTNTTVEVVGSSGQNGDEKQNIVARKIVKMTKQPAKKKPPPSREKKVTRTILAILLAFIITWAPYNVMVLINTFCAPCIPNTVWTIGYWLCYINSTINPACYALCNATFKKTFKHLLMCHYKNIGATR

[2] = target: T2, Muscarinic acetylcholine receptor M1 (Homo sapiens) (UniProt P11229); experiment: Agonist activity at muscarinic M1 receptor (unknown origin) at 1 uM by calcium mobilization assay; format: functional
T2 sequence (whole entry): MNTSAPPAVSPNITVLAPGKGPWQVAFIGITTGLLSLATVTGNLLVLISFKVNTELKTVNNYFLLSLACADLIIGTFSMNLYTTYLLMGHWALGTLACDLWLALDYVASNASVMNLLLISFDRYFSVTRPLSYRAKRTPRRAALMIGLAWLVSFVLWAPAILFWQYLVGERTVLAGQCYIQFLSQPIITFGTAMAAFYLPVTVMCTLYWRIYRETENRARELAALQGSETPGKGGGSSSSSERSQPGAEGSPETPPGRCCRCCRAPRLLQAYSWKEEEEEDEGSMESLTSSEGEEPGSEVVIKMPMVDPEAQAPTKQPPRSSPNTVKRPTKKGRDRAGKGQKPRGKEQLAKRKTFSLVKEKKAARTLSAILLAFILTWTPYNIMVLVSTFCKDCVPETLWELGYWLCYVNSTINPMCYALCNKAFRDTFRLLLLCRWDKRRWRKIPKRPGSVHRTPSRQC

[3] = Clearance in rat at 0.25 mg/kg, iv and 2.5 mg/kg, po; format: ADME, organism-based; conditions: in vivo
[4] = target: Muscarinic acetylcholine receptor M3 (Homo sapiens) (UniProt P20309); experiment: Agonist activity at muscarinic M3 receptor (unknown origin) at 1 uM by calcium mobilization assay; format: functional
Chain of Muscarinic acetylcholine receptor M3 (Homo sapiens) (P20309 whole entry, looked up): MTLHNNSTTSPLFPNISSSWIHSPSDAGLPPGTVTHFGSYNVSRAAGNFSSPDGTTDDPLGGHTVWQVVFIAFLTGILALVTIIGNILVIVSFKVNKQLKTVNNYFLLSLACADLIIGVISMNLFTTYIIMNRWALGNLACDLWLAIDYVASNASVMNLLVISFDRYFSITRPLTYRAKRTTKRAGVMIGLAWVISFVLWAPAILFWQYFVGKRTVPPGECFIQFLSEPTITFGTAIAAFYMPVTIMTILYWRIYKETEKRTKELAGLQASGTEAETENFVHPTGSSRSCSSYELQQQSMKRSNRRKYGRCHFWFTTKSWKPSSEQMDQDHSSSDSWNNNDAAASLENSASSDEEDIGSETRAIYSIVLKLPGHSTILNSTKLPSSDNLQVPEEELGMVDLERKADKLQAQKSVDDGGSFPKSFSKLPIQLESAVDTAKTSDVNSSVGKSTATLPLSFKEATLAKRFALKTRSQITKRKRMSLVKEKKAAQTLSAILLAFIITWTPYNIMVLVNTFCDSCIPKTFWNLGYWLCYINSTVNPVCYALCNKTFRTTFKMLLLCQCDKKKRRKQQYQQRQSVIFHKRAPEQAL

[5] = target: T3, Muscarinic acetylcholine receptor M5 (Homo sapiens) (UniProt P08912); experiment: Agonist activity at muscarinic M5 receptor (unknown origin) at 10 uM by calcium mobilization assay; format: functional
T3 sequence (whole entry): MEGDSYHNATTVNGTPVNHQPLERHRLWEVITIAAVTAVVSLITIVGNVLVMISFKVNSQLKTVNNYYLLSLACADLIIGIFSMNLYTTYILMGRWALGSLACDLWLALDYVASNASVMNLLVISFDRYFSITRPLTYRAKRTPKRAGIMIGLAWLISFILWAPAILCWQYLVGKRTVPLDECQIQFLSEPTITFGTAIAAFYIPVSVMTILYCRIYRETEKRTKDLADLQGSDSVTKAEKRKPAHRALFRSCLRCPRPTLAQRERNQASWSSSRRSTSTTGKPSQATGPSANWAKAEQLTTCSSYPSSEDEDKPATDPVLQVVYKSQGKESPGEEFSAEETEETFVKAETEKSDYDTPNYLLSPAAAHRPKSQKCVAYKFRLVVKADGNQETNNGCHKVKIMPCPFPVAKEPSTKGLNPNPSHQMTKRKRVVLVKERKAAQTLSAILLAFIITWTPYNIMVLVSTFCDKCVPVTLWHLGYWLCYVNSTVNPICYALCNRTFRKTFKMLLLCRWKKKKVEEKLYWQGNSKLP

[6] = target: T4, Muscarinic acetylcholine receptor M4 (Homo sapiens) (UniProt P08173); experiment: Agonist activity at muscarinic M4 receptor (unknown origin) at 1 uM by calcium mobilization assay; format: functional
T4 sequence (whole entry): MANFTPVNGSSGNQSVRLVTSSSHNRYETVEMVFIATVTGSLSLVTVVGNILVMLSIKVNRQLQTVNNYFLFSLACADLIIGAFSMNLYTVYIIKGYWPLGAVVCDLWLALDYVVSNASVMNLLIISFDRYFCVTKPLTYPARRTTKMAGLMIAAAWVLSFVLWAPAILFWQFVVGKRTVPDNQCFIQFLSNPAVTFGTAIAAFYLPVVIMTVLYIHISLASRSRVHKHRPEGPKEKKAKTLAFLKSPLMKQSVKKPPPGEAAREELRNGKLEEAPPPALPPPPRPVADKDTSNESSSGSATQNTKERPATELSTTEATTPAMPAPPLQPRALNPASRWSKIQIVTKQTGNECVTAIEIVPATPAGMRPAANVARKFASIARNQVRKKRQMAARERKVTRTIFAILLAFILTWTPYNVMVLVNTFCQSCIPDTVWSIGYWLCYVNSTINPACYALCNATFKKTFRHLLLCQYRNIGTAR

[7] = Oral bioavailability in rat at 2.5 mg/kg; format: ADME, organism-based; conditions: in vivo
[8] = target: T4, Muscarinic acetylcholine receptor M4 (Homo sapiens); experiment: Agonist activity at muscarinic M4 receptor (unknown origin) at 0.3 uM by calcium mobilization assay; format: functional
[9] = target: T2, Muscarinic acetylcholine receptor M1 (Homo sapiens); experiment: Agonist activity at muscarinic M1 receptor (unknown origin) at 0.3 uM by calcium mobilization assay; format: functional
[10] = target: T1, Muscarinic acetylcholine receptor M2 (Homo sapiens); experiment: Agonist activity at muscarinic M2 receptor (unknown origin) at 0.3 uM by calcium mobilization assay; format: functional
[11] = target: Muscarinic acetylcholine receptor M3 (Homo sapiens) (UniProt P20309); experiment: Agonist activity at muscarinic M3 receptor (unknown origin) at 0.3 uM by calcium mobilization assay; format: functional
[12] = target: Voltage-gated inwardly rectifying potassium channel KCNH2 (Homo sapiens, UniProt Q12809); experiment: Inhibition of human ERG channel
Chain of Voltage-gated inwardly rectifying potassium channel KCNH2 (Q12809 whole entry): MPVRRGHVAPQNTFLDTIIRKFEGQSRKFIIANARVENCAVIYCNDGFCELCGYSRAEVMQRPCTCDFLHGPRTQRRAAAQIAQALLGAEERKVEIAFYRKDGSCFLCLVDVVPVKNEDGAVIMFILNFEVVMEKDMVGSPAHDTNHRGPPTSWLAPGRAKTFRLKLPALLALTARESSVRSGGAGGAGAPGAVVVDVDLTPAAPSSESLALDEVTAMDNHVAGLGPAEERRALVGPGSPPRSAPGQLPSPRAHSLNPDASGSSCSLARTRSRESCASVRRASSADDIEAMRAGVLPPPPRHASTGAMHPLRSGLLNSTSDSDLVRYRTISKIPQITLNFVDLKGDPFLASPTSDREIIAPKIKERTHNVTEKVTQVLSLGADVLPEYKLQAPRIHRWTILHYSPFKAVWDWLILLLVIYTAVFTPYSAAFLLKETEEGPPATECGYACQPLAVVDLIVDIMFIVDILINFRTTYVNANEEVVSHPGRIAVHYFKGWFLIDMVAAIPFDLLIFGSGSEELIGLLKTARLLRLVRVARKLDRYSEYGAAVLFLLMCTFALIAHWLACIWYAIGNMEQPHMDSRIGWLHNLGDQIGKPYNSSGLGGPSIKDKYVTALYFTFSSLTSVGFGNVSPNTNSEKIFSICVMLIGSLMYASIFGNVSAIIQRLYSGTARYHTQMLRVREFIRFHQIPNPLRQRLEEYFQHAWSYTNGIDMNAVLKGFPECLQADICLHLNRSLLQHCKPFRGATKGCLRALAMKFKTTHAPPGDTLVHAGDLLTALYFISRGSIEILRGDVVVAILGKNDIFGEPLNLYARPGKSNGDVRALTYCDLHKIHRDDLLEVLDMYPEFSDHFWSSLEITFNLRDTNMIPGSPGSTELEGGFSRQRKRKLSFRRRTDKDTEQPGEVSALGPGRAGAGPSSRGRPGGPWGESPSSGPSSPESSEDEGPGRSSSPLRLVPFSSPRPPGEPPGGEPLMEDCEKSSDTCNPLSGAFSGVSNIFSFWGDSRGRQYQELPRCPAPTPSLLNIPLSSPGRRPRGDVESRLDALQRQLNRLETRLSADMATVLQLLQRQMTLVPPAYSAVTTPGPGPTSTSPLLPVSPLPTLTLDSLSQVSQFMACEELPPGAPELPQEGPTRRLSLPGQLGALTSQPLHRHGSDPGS

[13] = Lipophilicity, log P of the compound; format: physicochemical; conditions: octanol/water

For `CCOC(=O)N1CCC(CN2CCC3(CC2)CC(=O)N(CC)c2ncccc23)CC1`, the Activity [1] was 20%, the Activity [2] was 91% and the clearance [3] was 49.3 mL/min/kg. For the same molecule, the Activity [4] was 2%, the Activity [5] was 3% and the Activity [6] was 134%. The bioavailability [7] was 2.6%.

With `CCOC(=O)N1CCC(CN2CCC3(CC2)OC(=O)Nc2ncccc23)CC1` the clearance [3] was 17.5 mL/min/kg.

With `CCOC(=O)N1CCC(CN2CCC3(CC2)CN(C(=O)N2CCC2)c2ncccc23)CC1` the Activity [8] was 29%.

For `CCOC(=O)N1CCC(CN2CCC3(CC2)OC(=O)N(C)c2ncccc23)CC1`, the clearance [3] was 71.6 mL/min/kg.

Work on `CCOC(=O)N1CCC(CN2CCC3(CC2)CN(S(C)(=O)=O)c2ncccc23)CC1` yielded an Activity [9] of 20%, an Activity [8] of 88% and an Activity [5] of 3%. The Activity [10] was 12% and the Activity [11] was 7%.

Molecule `CCOC(=O)N1CCC(CN2CCC3(CC2)CN(C(=O)OC)c2ncccc23)CC1` has an Activity [6] of 7%.

With `CCNC(=O)N1CC2(CCN(CC3CCN(C(=O)OCC)CC3)CC2)c2cccnc21` the Activity [1] was 13%, the Activity [2] was 55% and the Activity [4] was 5%. It also gave an IC50 [12] of 230 nM, an Activity [5] of 11% and an Activity [6] of 77%.

For `CCOC(=O)N1CCC(CN2CCC3(CC2)CN(C(=O)NC)c2ncccc23)CC1`, the Activity [9] was 74%, the logP [13] was 2.5 and the IC50 [12] was 300 nM. The Activity [8] was 98%, the Activity [5] was 17% and the Activity [10] was 7%. For the same molecule, the Activity [11] was 8%.

Work on `CCOC(=O)N1CCC(CN2CCC3(CC2)CN(C(=O)N(CC)CC)c2ncccc23)CC1` yielded an Activity [1] of 23%, an Activity [2] of 52% and an Activity [4] of 4%. The IC50 [12] was 2540 nM, the Activity [5] was 9% and the Activity [6] was 132%.

In the case of `CCOC(=O)N1CCC(CN2CCC3(CC2)CN(CC)c2ncccc23)CC1`, the Activity [1] is reported as 14%, the Activity [2] is reported as 34% and the Activity [4] is reported as 6%. It also gave an Activity [5] of 17% and an Activity [6] of 58%.

For `CCOC(=O)N1CCC(CN2CCC3(CC2)CN(C(N)=O)c2ncccc23)CC1`, the Activity [9] was 99%, the logP [13] was 2 and the Activity [8] was 103%. For the same molecule, the Activity [5] was 8%, the Activity [10] was 17% and the Activity [11] was 11%.

In the case of `CCOC(=O)N1CCC(CN2CCC3(CC2)CN(C(=O)N2CCCC2)c2ncccc23)CC1`, the Activity [8] is reported as 10%.
